Assays:
[1] = system: HSD1 enzyme that is expressed in rabbit placenta tissue; assay: Inhibition of E1 to E2 conversion in rabbit placenta tissue homogenate; assay type: biochemical; details: compound 100 nM, 30 nM estrone, 1 mM β-NADPH, 30 min
Summary of the method: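 Rabbit placenta homogenate (20 mM KH2PO4, 1 mM EDTA, pH 7.4) incubated 30 min with 1 mM β-NADPH, 30 nM estrone plus 5 nM [3H]-estrone tracer, and inhibitor at 1 μM or 0.1 μM (1% DMSO). Stopped with TCA; estrone and estradiol resolved by HPLC with scintillation counting; % inhibition = 100 − % conversion relative to uninhibited control.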

[2] = Metabolic stability assay, human hepatocyte incubations; assay type: in vitro ADME; details: compound 1 μM, human hepatocytes, 0-60 min at 37° C.; read-out: Human hepatocytes MetStab T½ min
Summary of the method: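 Compounds at 1 μM (1% DMSO final) incubated with human hepatocytes at 37 °C for 0, 10, 20, 40 and 60 min. Parent measured by LC-MS/MS as % remaining versus time zero; T1/2 obtained by regression of the disappearance curve.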

[3] = target: T1, recombinant human 17β-HSD2 (Homo sapiens, UniProt P37059); assay: Inhibition of recombinant human 17β-HSD2 (estradiol to estrone conversion, HPLC/radioactivity); assay type: biochemical; details: compound 1 μM; 50 nM estradiol, 1 mM NADH, 30 min RT
T1 construct: made in house; host or cells: Sd9 (Sf9) insect cells, baculovirus (Bac to Bac Expression System)
T1 sequence (P37059 1-387): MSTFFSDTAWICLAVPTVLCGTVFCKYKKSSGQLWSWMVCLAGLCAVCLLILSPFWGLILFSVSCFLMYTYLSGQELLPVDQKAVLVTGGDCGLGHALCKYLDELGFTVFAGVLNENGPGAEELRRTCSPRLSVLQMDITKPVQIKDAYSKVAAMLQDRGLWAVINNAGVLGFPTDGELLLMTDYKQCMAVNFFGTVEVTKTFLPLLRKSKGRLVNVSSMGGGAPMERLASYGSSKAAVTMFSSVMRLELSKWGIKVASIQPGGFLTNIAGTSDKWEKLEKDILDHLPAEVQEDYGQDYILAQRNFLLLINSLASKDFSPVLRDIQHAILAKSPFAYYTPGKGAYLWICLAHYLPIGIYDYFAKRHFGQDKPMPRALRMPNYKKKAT
Summary of the method: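 Membrane extract of Sf9 cells expressing recombinant human 17β-HSD2 (4 μg/ml), in 20 mM KH2PO4 pH 8.5 with 50 nM ^3H-spiked estradiol and 1 mM NADH, 30 min at RT, 1% DMSO. Compound at 1 μM or 0.1 μM; estrone formation by HPLC radioactivity, % inhibition relative to uninhibited conversion.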

For `COc1ccnc(NC(=O)CC[C@@H]2c3c[nH]nc3[C@@]3(C)CCC4c5ccc(F)cc5CCC4C23)c1` (stereo partly drawn) [Compound 90, 3-((8aS,12S)-4-fluoro-8a-methyl-1,2,6b,7,8,8a,10,12,12a,12b-decahydronaphtho[2′,1′:4,5]indeno[1,2-c]pyrazol-12-yl)-N-(4-methoxypyridin-2-yl)propanamide], the “Rabbit placenta inhibition % @100 nM” value [1] was 30%, the half-life at 1 μM [2] was 1.28 h and the inhibition at 1 µM [3] was 3%.

In the case of `Cc1ccnc(NC(=O)CC[C@@H]2c3c[nH]nc3[C@@]3(C)CCC4c5ccc(F)cc5CCC4C23)c1` (stereo partly drawn) [Compound 93, 3-((8aS,12S)-4-fluoro-8a-methyl-1,2,6b,7,8,8a,10,12,12a,12b-decahydronaphtho[2′,1′:4,5]indeno[1,2-c]pyrazol-12-yl)-N-(4-methylpyridin-2-yl)-propanamide], the “Rabbit placenta inhibition % @100 nM” value [1] is reported as 31%, the half-life at 1 μM [2] is reported as 1.1 h and the inhibition at 1 µM [3] is reported as 4%.

For `C[C@]12CCC3c4ccc(F)cc4CCC3C1[C@H](CCC(=O)Nc1ccc(N3CCOCC3)cn1)c1c[nH]nc12` (stereo partly drawn) [Compound 96, 3-((8aS,12S)-4-fluoro-8a-methyl-1,2,6b,7,8,8a,10,12,12a,12b-decahydronaphtho[2′,1′:4,5]indeno[1,2-c]pyrazol-12-yl)-N-(5-morpholinopyridin-2-yl)propanamide], the “Rabbit placenta inhibition % @100 nM” value [1] was 42%, the half-life at 1 μM [2] was 1.25 h and the inhibition at 1 µM [3] was 5%.

In the case of `C[C@]12CCC3c4ccc(F)cc4CCC3C1[C@H](CCC(=O)Nc1ccc(F)cn1)c1c[nH]nc12` (stereo partly drawn) [Compound 99, 3-((8aS,12S)-4-fluoro-8a-methyl-1,2,6b,7,8,8a,10,12,12a,12b-decahydronaphtho[2′,1′:4,5]indeno[1,2-c]pyrazol-12-yl)-N-(5-fluoropyridin-2-yl)propanamide], the “Rabbit placenta inhibition % @100 nM” value [1] is reported as 10%, the half-life at 1 μM [2] is reported as 1.62 h and the inhibition at 1 µM [3] is reported as 4%.

For `C[C@]12CCC3c4ccc(Cl)cc4CCC3C1[C@H](CCC(=O)Nc1cc3c([nH]c1=O)CCCC3)c1c[nH]nc12` (stereo partly drawn) [Compound 123, 3-((8aS,12S)-4-chloro-8a-methyl-1,2,6b,7,8,8a,10,12,12a,12b-decahydronaphtho[2′,1′:4,5]indeno[1,2-c]pyrazol-12-yl)-N-(2-oxo-1,2,5,6,7,8-hexahydroquinolin-3-yl) propanamide], the “Rabbit placenta inhibition % @100 nM” value [1] was 17%, the half-life at 1 μM [2] was 2.58 h and the inhibition at 1 µM [3] was 8%.

For `CN(C)C(=O)c1ccc(NC(=O)CC[C@@H]2c3c[nH]nc3[C@@]3(C)CCC4c5ccc(Cl)cc5CCC4C23)nc1` (stereo partly drawn) [Compound 126, 6-(3-((8aS,12S)-4-chloro-8a-methyl-1,2,6b,7,8,8a,10,12,12a,12b-decahydronaphtho[2′,1′:4,5]indeno[1,2-c]pyrazol-12-yl)propanamido)-N,N-dimethylnicotinamide], the “Rabbit placenta inhibition % @100 nM” value [1] was 37%, the half-life at 1 μM [2] was 2.45 h and the inhibition at 1 µM [3] was 12%.

For `CC(C)c1ccc(NC(=O)CC[C@@H]2c3c[nH]nc3[C@@]3(C)CCC4c5ccccc5CCC4C23)nc1` (stereo partly drawn) [Compound 138, N-(5-isopropylpyridin-2-yl)-3-((8aS,12S)-8a-methyl-1,2,6b,7,8,8a,10,12,12a,12b-decahydronaphtho[2′,1′:4,5]indeno[1,2-c]pyrazol-12-yl)propanamide], the “Rabbit placenta inhibition % @100 nM” value [1] was 18%, the half-life at 1 μM [2] was 0.85 h and the inhibition at 1 µM [3] was 7%.

In the case of `COc1ccc(NC(=O)CC[C@@H]2c3c[nH]nc3[C@@]3(C)CCC4c5ccccc5CCC4C23)nc1` (stereo partly drawn) [Compound 141, N-(5-methoxypyridin-2-yl)-3-((8aS,12S)-8a-methyl-1,2,6b,7,8,8a,10,12,12a,12b-decahydronaphtho[2′,1′:4,5]indeno[1,2-c]pyrazol-12-yl)propanamide], the “Rabbit placenta inhibition % @100 nM” value [1] is reported as 35%, the half-life at 1 μM [2] is reported as 0.75 h and the inhibition at 1 µM [3] is reported as -1%.

In the case of `COc1ccc(NC(=O)CC[C@@H]2c3c[nH]nc3[C@@]3(C)CCC4c5ccccc5CCC4C23)nn1` (stereo partly drawn) [Compound 156, N-(6-methoxypyridazin-3-yl)-3-((8aS,12S)-8a-methyl-1,2,6b,7,8,8a,10,12,12a,12b-decahydronaphtho[2′,1′:4,5]indeno[1,2-c]pyrazol-12-yl)propanamide], the “Rabbit placenta inhibition % @100 nM” value [1] is reported as 56%, the half-life at 1 μM [2] is reported as 1.55 h and the inhibition at 1 µM [3] is reported as -3%.

With `C[C@]12CCC3c4ccccc4CCC3C1[C@H](CCC(=O)Nc1ccc(F)cn1)c1c[nH]nc12` (stereo partly drawn) [Compound 159, N-(5-fluoropyridin-2-yl)-3-((8aS,12S)-8a-methyl-1,2,6b,7,8,8a,10,12,12a,12b-decahydronaphtho[2′,1′:4,5]indeno[1,2-c]pyrazol-12-yl)propanamide] the “Rabbit placenta inhibition % @100 nM” value [1] was 23%, the half-life at 1 μM [2] was 1.28 h and the inhibition at 1 µM [3] was 3%.

In the case of `C[C@]12CCC3c4ccccc4CCC3C1[C@H](CCC(=O)Nc1cc(F)ccn1)c1c[nH]nc12` (stereo partly drawn) [Compound 162, N-(4-fluoropyridin-2-yl)-3-((8aS,12S)-8a-methyl-1,2,6b,7,8,8a,10,12,12a,12b-decahydronaphtho[2′,1′:4,5]indeno[1,2-c]pyrazol-12-yl)propanamide], the “Rabbit placenta inhibition % @100 nM” value [1] is reported as 44%, the half-life at 1 μM [2] is reported as 1.38 h and the inhibition at 1 µM [3] is reported as 9%.

For `COc1ccnc(NC(=O)CC[C@@H]2c3c[nH]nc3[C@@]3(C)CCC4c5ccccc5CCC4C23)c1` (stereo partly drawn) [Compound 165, N-(4-methoxypyridin-2-yl)-3-((8aS,12S)-8a-methyl-1,2,6b,7,8,8a,10,12,12a,12b-decahydronaphtho[2′1′:4,5]indeno[1,2-c]pyrazol-12-yl)propanamide], the “Rabbit placenta inhibition % @100 nM” value [1] was 34%, the half-life at 1 μM [2] was 0.733 h and the inhibition at 1 µM [3] was -2%.

With `Cc1ccnc(NC(=O)CC[C@@H]2c3c[nH]nc3[C@@]3(C)CCC4c5ccccc5CCC4C23)c1` (stereo partly drawn) [Compound 168, 3-((8aS,12S)-8a-methyl-1,2,6b,7,8,8a,10,12,12a,12b-decahydronaphtho[2′,1′:4,5]indeno[1,2-c]pyrazol-12-yl)-N-(4-methylpyridin-2-yl)propanamide] the “Rabbit placenta inhibition % @100 nM” value [1] was 58%, the half-life at 1 μM [2] was 1.13 h and the inhibition at 1 µM [3] was 5%.

For `C[C@]12CCC3c4ccccc4CCC3C1[C@H](CCC(=O)Nc1ccccn1)c1c[nH]nc12` (stereo partly drawn) [Compound 171, 3-((8aS,12S)-8a-methyl-1,2,6b,7,8,8a,10,12,12a,12b-decahydronaphtho[2′,1′:4,5]indeno[1,2-c]pyrazol-12-yl)-N-(pyridin-2-yl)propanamide], the “Rabbit placenta inhibition % @100 nM” value [1] was 27%, the half-life at 1 μM [2] was 1.22 h and the inhibition at 1 µM [3] was -1%.

For `C[C@]12CCC3c4ccccc4CCC3C1[C@H](CCC(=O)Nc1cnccn1)c1c[nH]nc12` (stereo partly drawn) [Compound 189, 3-((8aS,12S)-8a-methyl-1,2,6b,7,8,8a,10,12,12a,12b-decahydronaphtho[2′,1′:4,5]indeno[1,2-c]pyrazol-12-yl)-N-(pyrazin-2-yl)propanamide], the “Rabbit placenta inhibition % @100 nM” value [1] was 46%, the half-life at 1 μM [2] was 0.5 h and the inhibition at 1 µM [3] was 9%.

For `C[C@]12CCC3c4cccc(F)c4CCC3C1[C@H](CCC(=O)NC1CCCCC1)c1c[nH]nc12` (stereo partly drawn) [Compound 207, N-cyclohexyl-3-((8aS,12S)-3-fluoro-8a-methyl-1,2,6b,7,8,8a,10,12,12a,12b-decahydronaphtho[2′,1′:4,5]indeno[1,2-c]pyrazol-12-yl)propanamide], the “Rabbit placenta inhibition % @100 nM” value [1] was 14%, the half-life at 1 μM [2] was 0.3 h and the inhibition at 1 µM [3] was 4%.

In the case of `C[C@]12CCC3c4cccc(F)c4CCC3C1[C@H](CCC(=O)N1CCCC1)c1c[nH]nc12` (stereo partly drawn) [Compound 210, 3-((8aS,12S)-3-fluoro-8a-methyl-1,2,6b,7,8,8a,10,12,12a,12b-decahydronaphtho[2′,1′:4,5]indeno[1,2-c]pyrazol-12-yl)-1-(pyrrolidin-1-yl)propan-1-one], the “Rabbit placenta inhibition % @100 nM” value [1] is reported as 19%, the half-life at 1 μM [2] is reported as 0.183 h and the inhibition at 1 µM [3] is reported as 0%.

In the case of `CCN(CC)C(=O)CC[C@@H]1c2c[nH]nc2[C@@]2(C)CCC3c4cccc(F)c4CCC3C12` (stereo partly drawn) [Compound 216, N,N-diethyl-3-((8aS,12S)-3-fluoro-8a-methyl-1,2,6b,7,8,8a,10,12,12a,12b-decahydronaphtho[2′,1′:4,5]indeno[1,2-c]pyrazol-12-yl)propanamide], the “Rabbit placenta inhibition % @100 nM” value [1] is reported as 10%, the half-life at 1 μM [2] is reported as 0.133 h and the inhibition at 1 µM [3] is reported as 6%.

With `C[C@]12CCC3c4cccc(F)c4CCC3C1[C@H](CCC(=O)N1CCC3(CCOCC3)C1)c1c[nH]nc12` (stereo partly drawn) [Compound 219, 3-((8aS,12S)-3-fluoro-8a-methyl-1,2,6b,7,8,8a,10,12,12a,12b-decahydronaphtho[2′,1′:4,5]indeno[1,2-c]pyrazol-12-yl)-1-(8-oxa-2-azaspiro[4.5]decan-2-yl)propan-1-one] the “Rabbit placenta inhibition % @100 nM” value [1] was 14%, the half-life at 1 μM [2] was 0.117 h and the inhibition at 1 µM [3] was 3%.
